{"source": "patent US6423302B1", "about": "“Use of octocrylene for solubilizing 2,4-bis{[4-(2-ethyl-hexyloxy)-2-hydroxy]-phenyl}-6-(4-methoxyphenyl)-1,3,5-triazine in cosmetic or dermatological light protection compositions” (Beiersdorf AG, priority 1999, dated 2002)", "origin": "cited, not measured here", "conditions": "prior-art statement", "data": [{"smiles": "CCCCC(CC)COc1ccc(-c2nc(-c3ccc(OC)cc3)nc(-c3ccc(OCC(CC)CCCC)cc3O)n2)c(O)c1", "note": "(centres unmarked) [2,4-bis-{[4-(2-ethylhexyloxy)-2-hydroxy]phenyl}-6-(4-methoxyphenyl)-1,3,5-triazine]", "values": [{"measurement": "maximum amount of this filter that known solvents can dissolve", "setting": "known solvents for this UV filter (lipids)", "result": "≤ 10", "unit": "% by weight"}, {"measurement": "solubility in lipids", "setting": "stated as main disadvantage", "result": "poor solubility in lipids"}]}]}
